Test results as given in PubChem BioAssay AID328 (DTP/NCI, 2004).
Several values for one entry are separate records, joined by “and”; a condition that tells them apart may be missing. Identical values can stand only once. Toxic doses and inconclusive results are not listed.

Test system: BDF1 mice, P388 leukemia ip, median survival T/C
Assay: NCI In Vivo Anticancer Drug Screen. Data for tumor model P388 Leukemia (intraperitoneal) in B6D2F1 (BDF1) mice
Conditions: endpoint: median survival time, higher = longer survival
Procedure, shortened: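 Read-out is survival of treated animals expressed relative to the vehicle group, as a T/C ratio.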

[1] = dose: 25.0 mg/kg/injection, schedule: Q04DX003 (ip), vehicle: saline
[2] = dose: 50.0 mg/kg/injection, schedule: Q04DX003 (ip), vehicle: saline
[3] = dose: 100.0 mg/kg/injection, schedule: Q01DX009 (ip), vehicle: saline with Tween-80
[4] = dose: 200.0 mg/kg/injection, schedule: Q01DX009 (ip), vehicle: saline with Tween-80

## COc1cc2cc3c4cc5c(cc4cc[n+]3c(C)c2cc1OC)OCO5 (tested in a mixture with another compound)
dose: 1.46 mg/kg/injection, schedule: Q04DX003 (ip), vehicle: saline
  T/C: 117 % of control
dose: 16.5 mg/kg/injection, schedule: Q04DX003 (ip), vehicle: saline
  T/C: 150 % of control
[1]
  T/C: 156 % of control and 159 % of control
dose: 44.0 mg/kg/injection, schedule: Q04DX003 (ip), vehicle: saline
  T/C: 168 % of control
[2]
  T/C: 160 % of control
dose: 66.0 mg/kg/injection, schedule: Q04DX003 (ip), vehicle: saline
  T/C: 177 % of control
dose: 100.0 mg/kg/injection, schedule: Q04DX003 (ip), vehicle: saline
  T/C: 163 % of control and 182 % of control

## c1ccc2c(c1)ccc1c2c[n+](CCCCCCCC[n+]2cc3c4ccccc4ccc3c3ccccc32)c2ccccc12
dose: 1.56 mg/kg/injection, schedule: Q01DX009 (ip), vehicle: other
  T/C: 165 % of control
dose: 6.25 mg/kg/injection, schedule: Q01DX009 (ip), vehicle: other
  T/C: 98 % of control
dose: 12.5 mg/kg/injection, schedule: Q01DX009 (ip), vehicle: other
  T/C: 106 % of control
dose: 25.0 mg/kg/injection, schedule: Q01DX009 (ip), vehicle: other
  T/C: 95 % of control

## CC(C(O)c1ccc(Br)cc1)C(O)(C(F)(F)F)C(F)(F)F (centres undefined)
dose: 100.0 mg/kg/injection, schedule: Q04DX003 (ip), vehicle: other
  T/C: 100 % of control
dose: 200.0 mg/kg/injection, schedule: Q04DX003 (ip), vehicle: other
  T/C: 100 % of control
dose: 400.0 mg/kg/injection, schedule: Q04DX003 (ip), vehicle: other
  T/C: 100 % of control

## N#CSCc1ccc(Cl)c(CSC#N)c1
dose: 8.0 mg/kg/injection, schedule: Q01DX009 (ip), vehicle: Klucel (hydroxypropylcellulose) (HPC)
  T/C: 110 % of control
dose: 12.0 mg/kg/injection, schedule: Q01DX009 (ip), vehicle: Klucel (hydroxypropylcellulose) (HPC)
  T/C: 117 % of control
dose: 12.5 mg/kg/injection, schedule: Q01DX009 (ip), vehicle: Klucel (hydroxypropylcellulose) (HPC)
  T/C: 160 % of control
dose: 16.5 mg/kg/injection, schedule: Q04DX003 (ip), vehicle: Klucel (hydroxypropylcellulose) (HPC)
  T/C: 115 % of control
dose: 25.0 mg/kg/injection, schedule: Q04DX003 (ip), vehicle: Klucel (hydroxypropylcellulose) (HPC)
  T/C: 115 % of control
dose: 37.0 mg/kg/injection, schedule: Q04DX003 (ip), vehicle: Klucel (hydroxypropylcellulose) (HPC)
  T/C: 123 % of control

## CCOC(=O)C1CN(c2ccccc2)C(=O)C1=O (centres undefined)
dose: 50.0 mg/kg/injection, schedule: Q01DX009 (ip), vehicle: Klucel (hydroxypropylcellulose) (HPC)
  T/C: 112 % of control
dose: 100.0 mg/kg/injection, schedule: Q01DX009 (ip), vehicle: Klucel (hydroxypropylcellulose) (HPC)
  T/C: 118 % of control
dose: 200.0 mg/kg/injection, schedule: Q01DX009 (ip), vehicle: Klucel (hydroxypropylcellulose) (HPC)
  T/C: 110 % of control
dose: 400.0 mg/kg/injection, schedule: Q01DX009 (ip), vehicle: Klucel (hydroxypropylcellulose) (HPC)
  T/C: 110 % of control

## CCOC(=O)C1CC1Cc1ccccc1 (centres undefined)
[3]
  T/C: 108 % of control
dose: 100.0 mg/kg/injection, schedule: Q04DX003 (ip), vehicle: saline with Tween-80
  T/C: 104 % of control
[4]
  T/C: 108 % of control
dose: 200.0 mg/kg/injection, schedule: Q04DX003 (ip), vehicle: saline with Tween-80
  T/C: 108 % of control
dose: 400.0 mg/kg/injection, schedule: Q01DX009 (ip), vehicle: saline with Tween-80
  T/C: 120 % of control
dose: 400.0 mg/kg/injection, schedule: Q04DX003 (ip), vehicle: saline with Tween-80
  T/C: 113 % of control

## NC(=O)NNC(N)=O
dose: 12.5 mg/kg/injection, schedule: Q04DX003 (ip), vehicle: saline
  T/C: 105 % of control
dose: 25.0 mg/kg/injection, schedule: Q01DX009 (ip), vehicle: saline
  T/C: 100 % of control
[1]
  T/C: 116 % of control
dose: 50.0 mg/kg/injection, schedule: Q01DX009 (ip), vehicle: saline
  T/C: 100 % of control
[2]
  T/C: 100 % of control
dose: 75.0 mg/kg/injection, schedule: Q04DX003 (ip), vehicle: saline
  T/C: 100 % of control
dose: 115.0 mg/kg/injection, schedule: Q04DX003 (ip), vehicle: saline
  T/C: 86 % of control
dose: 170.0 mg/kg/injection, schedule: Q04DX003 (ip), vehicle: saline
  T/C: 90 % of control

## CCc1ccc2[nH]nc(CCC(=O)O)c(=O)c2c1
dose: 50.0 mg/kg/injection, schedule: Q01DX009 (ip), vehicle: saline with Tween-80
  T/C: 117 % of control
[3]
  T/C: 108 % of control
[4]
  T/C: 92 % of control

## O=C1C=C(SCCO)C(=O)c2ccccc21
dose: 0.37 mg/kg/injection, schedule: Q04DX003 (ip), vehicle: saline
  T/C: 100 % of control
dose: 0.75 mg/kg/injection, schedule: Q04DX003 (ip), vehicle: saline
  T/C: 104 % of control
dose: 1.5 mg/kg/injection, schedule: Q04DX003 (ip), vehicle: saline
  T/C: 109 % of control
